From patent US9120770B2, “Substituted pyridine and pyrazine compounds as PDE4 inhibitors” (DART NEUROSCIENCE (CAYMAN) LTD., priority 2013, dated 2015)

target: PDE4D3 (Homo sapiens, UniProt Q08499)
Sequence (Q08499 1-673 isoform Q08499-2): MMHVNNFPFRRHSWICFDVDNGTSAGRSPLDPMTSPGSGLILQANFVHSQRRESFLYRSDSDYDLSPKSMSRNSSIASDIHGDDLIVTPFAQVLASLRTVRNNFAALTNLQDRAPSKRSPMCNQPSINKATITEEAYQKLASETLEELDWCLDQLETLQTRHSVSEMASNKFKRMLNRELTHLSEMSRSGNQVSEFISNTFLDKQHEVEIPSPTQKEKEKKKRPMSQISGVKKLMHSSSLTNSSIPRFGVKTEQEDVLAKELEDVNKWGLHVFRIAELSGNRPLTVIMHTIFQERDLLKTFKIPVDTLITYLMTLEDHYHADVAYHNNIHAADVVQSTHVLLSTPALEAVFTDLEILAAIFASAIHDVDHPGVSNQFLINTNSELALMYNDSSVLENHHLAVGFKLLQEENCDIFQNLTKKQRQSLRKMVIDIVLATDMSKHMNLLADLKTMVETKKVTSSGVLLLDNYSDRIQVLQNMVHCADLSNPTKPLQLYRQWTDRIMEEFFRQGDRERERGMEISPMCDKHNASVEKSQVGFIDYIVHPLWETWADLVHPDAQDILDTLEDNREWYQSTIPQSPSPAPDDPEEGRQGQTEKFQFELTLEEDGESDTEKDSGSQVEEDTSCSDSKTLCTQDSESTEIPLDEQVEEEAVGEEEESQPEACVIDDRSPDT

| Compound | EC50 |
| --- | --- |
| COc1ncc(Cn2cc([N+](=O)[O-])cn2)nc1-c1cccc(Cl)c1 [Example 181, 3-(3-Chlorophenyl)-2-methoxy-5-[(4-nitro-1H-pyrazol-1-yl)methyl]pyrazine] | 1000 to 10000 nM |
| COc1ncc(Cn2cccn2)nc1-c1cccc(Cl)c1 [Example 182, 3-(3-Chlorophenyl)-2-methoxy-5-(1H-pyrazol-1-ylmethyl)pyrazine] | 1000 to 10000 nM |
| COc1ncc(Cn2cc(C)cn2)nc1-c1cccc(Cl)c1 [Example 184, 3-(3-Chlorophenyl)-2-methoxy-5-[(4-methyl-1H-pyrazol-1-yl)methyl]pyrazine] | 1000 to 10000 nM |
| CCOc1ncc(Cn2cnc(C3CC3)n2)nc1-c1cccc(OC(F)F)c1 [Example 186, 5-[(3-Cyclopropyl-1H-1,2,4-triazol-1-yl)methyl]-3-[3-(difluoromethoxy)phenyl]-2-ethoxypyrazine] | 1000 to 10000 nM |
| CCOc1ncc(Cn2cnc(C(F)(F)F)n2)nc1-c1cccc(OC(F)F)c1 [Example 187, 3-[3-(Difluoromethoxy)phenyl]-2-ethoxy-5-{[3-(trifluoromethyl)-1H-1,2,4-triazol-1-yl]methyl}pyrazine] | 1000 to 10000 nM |
| CCOc1ncc(Cn2ncnc2COC)nc1-c1cccc(OC(F)F)c1 [Example 190, 3-[3-(Difluoromethoxy)phenyl]-2-ethoxy-5-{[5-(methoxymethyl)-1H-1,2,4-triazol-1-yl]methyl}pyrazine] | 1000 to 10000 nM |
| CCOc1ncc(Cn2ncnc2C(=O)OC)nc1-c1cccc(OC(F)F)c1 [Example 192, Methyl 1-((6-(3-(difluoromethoxy)phenyl)-5-ethoxypyrazin-2-yl)methyl)-1H-1,2,4-triazole-5-carboxylate] | 1000 to 10000 nM |
| CCOc1ncc(Cn2cnc([N+](=O)[O-])n2)nc1-c1cccc(OC(F)F)c1 [Example 193, 3-(3-(Difluoromethoxy)phenyl)-2-ethoxy-5-((3-nitro-1H-1,2,4-triazol-1-yl)methyl)pyrazine] | 1000 to 10000 nM |
| CCOc1ncc(Cn2ncnc2[N+](=O)[O-])nc1-c1cccc(OC(F)F)c1 [Example 194, 3-(3-(Difluoromethoxy)phenyl)-2-ethoxy-5-((5-nitro-1H-1,2,4-triazol-1-yl)methyl)pyrazine] | 1000 to 10000 nM |
| COC(=O)c1ncnn1Cc1cnc(OC)c(-c2cccc(Cl)c2)n1 [Example 195, Methyl 1-{[6-(3-chlorophenyl)-5-methoxypyrazin-2-yl]methyl}-1H-1,2,4-triazole-5-carboxylate] | 1000 to 10000 nM |
| COC(=O)c1ncn(Cc2cnc(OC)c(-c3cccc(OC(F)F)c3)n2)n1 [Example 196, Methyl 1-({6-[3-(difluoromethoxy)phenyl]-5-methoxypyrazin-2-yl}methyl)-1H-1,2,4-triazole-3-carboxylate] | 1000 to 10000 nM |
| CCOc1ncc(Cn2cnc(C(=O)OC)n2)nc1-c1cccc(Cl)c1 [Example 197, Methyl 1-{[6-(3-chlorophenyl)-5-ethoxypyrazin-2-yl]methyl}-1H-1,2,4-triazole-3-carboxylate] | 1000 to 10000 nM |
| NC(=O)c1cn(Cc2cnc(OC(F)F)c(-c3cccc(Cl)c3)c2)cn1 [Example 198, 1-{[5-(3-Chlorophenyl)-6-(difluoromethoxy)pyridin-3-yl]methyl}-1H-imidazole-4-carboxamide] | 1000 to 10000 nM |
| COc1ncc(Cn2cnc(CO)n2)nc1-c1cccc(Cl)c1 [Example 199, (1-{[6-(3-Chlorophenyl)-5-methoxypyrazin-2-yl]methyl}-1H-1,2,4-triazol-3-yl)methanol] | 1000 to 10000 nM |
| CCOc1ncc(Cn2ncnc2CO)nc1-c1cccc(OC(F)F)c1 [Example 209, [1-({6-[3-(Difluoromethoxy)phenyl]-5-ethoxypyrazin-2-yl}methyl)-1H-1,2,4-triazol-5-yl]methanol] | 1000 to 10000 nM |
| COc1ncc(Cn2ncnc2CO)nc1-c1cccc(Cl)c1 [Example 210, (1-{[6-(3-Chlorophenyl)-5-methoxypyrazin-2-yl]methyl}-1H-1,2,4-triazol-5-yl)methanol] | 1000 to 10000 nM |
| CCOc1ncc(Cn2cnc(CO)n2)nc1-c1cccc(Cl)c1 [Example 212, (1-{[6-(3-Chlorophenyl)-5-ethoxypyrazin-2-yl]methyl}-1H-1,2,4-triazol-3-yl)methanol] | 100 to 1000 nM |
| COc1ncn(Cc2cnc(OC)c(-c3cccc(Cl)c3)c2)n1 [Example 213, 3-(3-Chlorophenyl)-2-methoxy-5-[(3-methoxy-1H-1,2,4-triazol-1-yl)methyl]pyridine] | 100 to 1000 nM |
| COc1ncn(Cc2cnc(OC(F)F)c(-c3cccc(Cl)c3)c2)n1 [Example 214, 3-(3-Chlorophenyl)-2-(difluoromethoxy)-5-[(3-methoxy-1H-1,2,4-triazol-1-yl)methyl]pyridine] | 100 to 1000 nM |
| COc1ncnn1Cc1cnc(OC(F)F)c(-c2cccc(Cl)c2)c1 [Example 215, 3-(3-Chlorophenyl)-2-(difluoromethoxy)-5-[(5-methoxy-1H-1,2,4-triazol-1-yl)methyl]pyridine] | 1000 to 10000 nM |
| CCOc1ncn(Cc2cnc(OC(F)F)c(-c3cccc(Cl)c3)c2)n1 [Example 216, 3-(3-Chlorophenyl)-2-(difluoromethoxy)-5-[(3-ethoxy-1H-1,2,4-triazol-1-yl)methyl]pyridine] | 100 to 1000 nM |
| COc1ncc(Cn2cnc(N)n2)cc1-c1cccc(Cl)c1 [Example 218, 1-{[5-(3-Chlorophenyl)-6-methoxypyridin-3-yl]methyl}-1H-1,2,4-triazol-3-amine] | 100 to 1000 nM |
| COc1ncc(Cn2cnc(N)n2)cc1-c1cccc(F)c1 [Example 220, 1-{[5-(3-Fluorophenyl)-6-methoxypyridin-3-yl]methyl}-1H-1,2,4-triazol-3-amine] | 100 to 1000 nM |

More lines, now with the values ahead:

| EC50 | Compound |
| --- | --- |
| 100 to 1000 nM | COc1ncc(Cn2cc([N+](=O)[O-])cn2)cc1-c1cccc(Cl)c1 [Example 180, 3-(3-Chlorophenyl)-2-methoxy-5-[(4-nitro-1H-pyrazol-1-yl)methyl]pyridine] |
| < 100 nM | COc1ncc(Cn2ccnc2)nc1-c1cccc(Cl)c1 [Example 183, 3-(3-Chlorophenyl)-5-(1H-imidazol-1-ylmethyl)-2-methoxypyrazine] |
| < 100 nM | CCOc1ncc(Cn2cnc(C)n2)nc1-c1cccc(OC(F)F)c1 [Example 185, 3-[3-(Difluoromethoxy)phenyl]-2-ethoxy-5-[(3-methyl-1H-1,2,4-triazol-1-yl)methyl]pyrazine] |
| 100 to 1000 nM | CCOc1ncc(Cn2ncnc2C(F)(F)F)nc1-c1cccc(OC(F)F)c1 [Example 188, 3-[3-(Difluoromethoxy)phenyl]-2-ethoxy-5-{[5-(trifluoromethyl)-1H-1,2,4-triazol-1-yl]methyl}pyrazine] |
| 100 to 1000 nM | CCOc1ncc(Cn2cnc(COC)n2)nc1-c1cccc(OC(F)F)c1 [Example 189, 3-[3-(Difluoromethoxy)phenyl]-2-ethoxy-5-{[3-(methoxymethyl)-1H-1,2,4-triazol-1-yl]methyl}pyrazine] |
| 100 to 1000 nM | CCOc1ncc(Cn2cnc(C(=O)OC)n2)nc1-c1cccc(OC(F)F)c1 [Example 191, Methyl 1-((6-(3-(difluoromethoxy)phenyl)-5-ethoxypyrazin-2-yl)methyl)-1H-1,2,4-triazole-3-carboxylate] |
| 100 to 1000 nM | OCc1ncn(Cc2cnc(OC(F)F)c(-c3cccc(Cl)c3)c2)n1 [Example 200, (1-{[5-(3-Chlorophenyl)-6-(difluoromethoxy)pyridin-3-yl]methyl}-1H-1,2,4-triazol-3-yl)methanol] |
| < 100 nM | CCOc1ncc(Cn2cnc(CO)n2)cc1-c1cccc(OC(F)F)c1 [Example 201, [1-({5-[3-(Difluoromethoxy)phenyl]-6-ethoxypyridin-3-yl}methyl)-1H-1,2,4-triazol-3-yl]methanol] |
| < 100 nM | COc1ncc(Cn2cnc(CO)n2)cc1-c1cccc(OC(F)F)c1 [Example 202, [1-({5-[3-(Difluoromethoxy)phenyl]-6-methoxypyridin-3-yl}methyl)-1H-1,2,4-triazol-3-yl]methanol] |
| < 100 nM | CCOc1ncc(Cn2cnc(CO)n2)cc1-c1cccc(Cl)c1 [Example 203, (1-((5-(3-Chlorophenyl)-6-ethoxypyridin-3-yl)methyl)-1H-1,2,4-triazol-3-yl)methanol] |
| < 100 nM | CCOc1cccc(-c2cc(Cn3cnc(CO)n3)cnc2OC(F)F)c1 [Example 204, (1-{[6-(Difluoromethoxy)-5-(3-ethoxyphenyl)pyridin-3-yl]methyl}-1H-1,2,4-triazol-3-yl)methanol] |
| < 100 nM | COc1ncc(Cn2cnc(CO)n2)cc1-c1ccnc(OC(F)F)c1 [Example 205, [1-({5-[2-(Difluoromethoxy)pyridin-4-yl]-6-methoxypyridin-3-yl}methyl)-1H-1,2,4-triazol-3-yl]methanol] |
| < 100 nM | CCOc1ncc(Cn2cnc(CO)n2)cc1-c1ccnc(OC(F)F)c1 [Example 206, [1-({5-[2-(Difluoromethoxy)pyridin-4-yl]-6-ethoxypyridin-3-yl}methyl)-1H-1,2,4-triazol-3-yl]methanol] |
| 100 to 1000 nM | OCc1ncn(Cc2cnc(OC(F)F)c(-c3ccnc(OC(F)F)c3)c2)n1 [Example 207, (1-{[6-(Difluoromethoxy)-5-[2-(difluoromethoxy)pyridin-4-yl]pyridin-3-yl]methyl}-1H-1,2,4-triazol-3-yl)methanol] |
| 100 to 1000 nM | CCOc1ncc(Cn2cnc(CO)n2)nc1-c1cccc(OC(F)F)c1 [Example 208, [1-({6-[3-(Difluoromethoxy)phenyl]-5-ethoxypyrazin-2-yl}methyl)-1H-1,2,4-triazol-3-yl]methanol] |
| 100 to 1000 nM | COc1ncc(Cn2cnc(CO)n2)nc1-c1cccc(OC(F)F)c1 [Example 211, [1-({6-[3-(Difluoromethoxy)phenyl]-5-methoxypyrazin-2-yl}-methyl)-1H-1,2,4-triazol-3-yl]methanol] |
| < 100 nM | COc1ncc(Cn2cnc(N)n2)cc1-c1cccc(OC(F)F)c1 [Example 217, 1-({5-[3-(Difluoromethoxy)phenyl]-6-methoxypyridin-3-yl}methyl)-1H-1,2,4-triazol-3-amine] |
| < 100 nM | Nc1ncn(Cc2cnc(OC(F)F)c(-c3cccc(Cl)c3)c2)n1 [Example 219, 1-{[5-(3-Chlorophenyl)-6-(difluoromethoxy)pyridin-3-yl]methyl}-1H-1,2,4-triazol-3-amine] |
